Source: publication PMC3094704, “S-Petasin, the Main Sesquiterpene of Petasites formosanus, Inhibits Phosphodiesterase Activity and Suppresses Ovalbumin-Induced Airway Hyperresponsiveness” (Evidence-based Complementary and Alternative Medicine : eCAM, 2011)

Experiments:
PDE1 = experiment: Inhibition of PDE1 activity (two-step radioenzymatic assay); assay type: biochemical, guinea pig; details: mean ± SEM (n); read-out: IC50 on PDE isozyme 1
Experimental: Activities of PDE1–5, partially separated from guinea pig lungs and hearts according to the method described by Ko et al., were measured with a two-step procedure according to the method of Thompson and Appleman, using cAMP with [^3H]-cAMP or cGMP with [^3H]-cGMP as substrates. The enzyme pμreparation (25 μL) was incubated for 30 min at 37°C in a total assay volume of […] containing 50 mM Tris-HCl (pH 7.4), 3 mM MgCl2, 1 mM dithiothreitol, 0.05% BSA, 1 μM cAMP with 0.2 μCi [^3H]-cAMP as a substrate alone or in the presence of 0.1 units calmodulin with 10 μM CaCl2 or 5 μM cGMP, and 1 μM cGMP with 0.2 μCi [^3H]-cGMP as another substrate alone or in the presence of 0.1 units calmodulin with 10 μM CaCl2. In tests of enzyme inhibition, the reaction mixture contained 10 μL of vehicle or inhibitors, at various concentrations of S-petasin or selective PDE1–5 inhibitors, such as vinpocetin [22], EHNA [23], milrinone, Ro 20-1724 [25] and zaprinast, as reference drugs. The reagents and homogenate were mixed on ice, and the reaction was initiated by transferring the mixture to a water bath at 37°C. Following a 30-min incubation, the reaction was stopped by transferring the reaction vessel to a bath of boiling water for 3 min. After cooling on ice, 20 μL of a 1 mg/mL solution of C. atrox snake venom was added to the reaction mixture, and the mixture was incubated at 37°C for 10 min. […]

PDE4 = experiment: Inhibition of PDE4 activity and Lineweaver-Burk analysis; assay type: biochemical, guinea pig
Experimental: Activities of PDE1–5, partially separated from guinea pig lungs and hearts according to the method described by Ko et al., were measured with a two-step procedure according to the method of Thompson and Appleman, using cAMP with [^3H]-cAMP or cGMP with [^3H]-cGMP as substrates. The enzyme pμreparation (25 μL) was incubated for 30 min at 37°C in a total assay volume of […] containing 50 mM Tris-HCl (pH 7.4), 3 mM MgCl2, 1 mM dithiothreitol, 0.05% BSA, 1 μM cAMP with 0.2 μCi [^3H]-cAMP as a substrate alone or in the presence of 0.1 units calmodulin with 10 μM CaCl2 or 5 μM cGMP, and 1 μM cGMP with 0.2 μCi [^3H]-cGMP as another substrate alone or in the presence of 0.1 units calmodulin with 10 μM CaCl2. In tests of enzyme inhibition, the reaction mixture contained 10 μL of vehicle or inhibitors, at various concentrations of S-petasin or selective PDE1–5 inhibitors, such as vinpocetin [22], EHNA [23], milrinone, Ro 20-1724 [25] and zaprinast, as reference drugs. The reagents and homogenate were mixed on ice, and the reaction was initiated by transferring the mixture to a water bath at 37°C. Following a 30-min incubation, the reaction was stopped by transferring the reaction vessel to a bath of boiling water for 3 min. After cooling on ice, 20 μL of a 1 mg/mL solution of C. atrox snake venom was added to the reaction mixture, and the mixture was incubated at 37°C for 10 min. Unreacted [^3H]-cAMP or [^3H]-cGMP was removed by the addition of 500 μL of a 1-in-1 Tris-HCl (40 mM) buffer suspension of Dowex resin (1 × 8-200) with incubation on ice for 30 min. Each tube was then centrifuged for 2 min at 3700 g, and 150 μL of the supernatant was removed for liquid scintillation counting. Less than 10% of the tritiated cyclic nucleotide was hydrolyzed in this assay. The total protein in each fraction used was assayed according to the method described by Bradford. The PDE activities are shown as nmol/mg/min in the Lineweaver-Burk analysis.

[1] = system: OVA-sensitized and challenged BALB/c mice; experiment: Airway hyperresponsiveness in vivo (Penh, whole-body plethysmography); design: species or system mouse
Experimental: Ten female BABL/c mice in each group were sensitized by an intraperitoneal (i.p.) injection of 20 μg of OVA emulsified in 2.25 mg aluminum hydroxide gel in a total volume of 100 μL on days 0 and 14. The mice were challenged via the airway by 1% OVA in saline for 30 min on Days 28, 29 and 30 by ultrasonic nebulization. Six weeks after the last of three primary OVA challenges, the mice were exposed to 1% OVA for 30 min by nebulization as a secondary challenge. AHR was assessed on Day 74 (48 h after 1% OVA provocation) in each group. […] For comparison, sham-treated mice were sensitized but challenged with saline instead of 1% OVA (non-challenged). The vehicle, a mixture of alcohol : DMSO : 30% HPβCD : saline (0.5 : 0.5 : 1 : 8 , v/v), or S-petasin was injected at a volume of 0.01 mL/g of body weight. AHR was measured in unrestrained animals by barometric plethysmography using a whole-body plethysmograph (WBP) and analyzed using software of Life Science Suite P3 Analysis Modules (Gould, LDS Test and Measurement LLC, Valley View, OH, USA). The mice were placed into the main chamber of the WBP, and the baseline enhanced pause (P enh) value was determined. Then the mice were nebulized first with phosphate-buffered saline (PBS), and subsequently with increasing doses (6.25–50 mg/mL) of MCh for 3 min for each nebulization, followed by readings of breathing parameters for 3 min after each nebulization with determination of P enh values. Twenty-four hours after the P enh determination, these mice were anesthetized with pentobarbital (50 mg/kg, i.p.), and lavaged via a tracheal tube with PBS (1 × 1.0 mL, 37°C). After lavage, blood was collected from the jugular vein and allowed to sit so that it would coagulate. The collected bronchoalveolar lavage fluid (BALF) and coagulated blood were, respectively, centrifuged at 630 g for 7 min and at 3700 g for 10 min at 4°C, respectively. After centrifugation, the supernatants of BALF and serum were stored at −20°C until the determinations of cytokines, including interleukin (IL)-2, IL-4, IL-5, tumor necrosis factor (TNF)-α and interferon (IFN)-γ by flow cytometric methods using mouse Th1/Th2 cytokine CBA kits, of total immunoglobulin E (IgE), and of total IgG2a using enzyme-linked immunosorbent assay (ELISA) kits (Pharmingen, San Diego, CA, USA) according to the respective recommendations of the manufacturer. OVA-specific IgE was measured as described previously with some modifications. Wells were coated with 100 μL of OVA (20 μg/mL) instead of the capture antibody. Levels are expressed in arbitrary units, where one arbitrary unit equals the optical density of the sample divided by the optical density of unchallenged mouse serum or BALF (standard). The pellet from BALF was re-suspended in ACK lysing buffer (1.658 g NH4Cl, 0.2 g KHCO3 and 1.44 mg EDTA in 200 mL of water) to lyse the residual erythrocytes in each sample. The number of inflammatory cells was counted using a hemocytometer (Hausser Scientific, Horsham, PA, USA). Cytospun slides were stained and differentiated in a blinded fashion by counting at least 100 cells under light microscopy.

SMILES: C=C(C)[C@@H]1C[C@@]2(C)C(=CC1=O)CC[C@@H](OC(=O)/C=C\SC)[C@@H]2C [S-Petasin]
- IC50 (PDE1): > 100 µM
- Ki (PDE4; Lineweaver-Burk analysis, cAMP substrate, read-out: Ki on PDE isozyme 4): 18.1 ± 1.7 µM
- Mode of inhibition of PDE4 activity (PDE4; Lineweaver-Burk analysis, S-petasin 3–30 μM, Ro 20-1724 1–10 μM): competitively inhibited
- IC50 (PDE4; mean ± SEM (n), read-out: IC50 on PDE isozyme 4 (taken as PDE4L value)): 17.5 µM
- Penh value at the baseline ([1]; 10 μmol/kg s.c.): 3.19 ± 0.47
- Penh value of PBS nebulization ([1]; 10 μmol/kg s.c.): 2.99 ± 0.22
- Penh value at the baseline ([1]; 30 μmol/kg s.c.): 3.13 ± 0.32
- Penh value of PBS nebulization ([1]; 30 μmol/kg s.c.): 3.02 ± 0.23
- Enhancement of the Penh value induced by MCh ([1]; 10–30 μmol/kg s.c., MCh at 50 mg/mL): dose-dependently and significantly attenuated
